“And” between values parts separate entries of the source, which are not always exact repeats. Equal entries are not always repeated. ± gives the expanded uncertainty stated by the source.
Experiment: activity coefficient (dimensionless); of the first substance listed, at infinite dilution; xn = mol fraction of the nth substance listed
Conditions: 101 kPa, Liquid, Chromatography, x1 = 0

Row | Structure (SMILES) | activity coefficient (303.15 K) | activity coefficient (313.15 K) | activity coefficient (323.15 K)
1 | C#CCCC [1-pentyne] + CCCCCCCC[N+](C)(CCCCCCCC)CCCCCCCC.O=C(O)c1ccccc1[S-] | 0.63 ± 0.08 | 0.65 ± 0.08 | 0.67 ± 0.08
2 | C1CCCCCC1 [cycloheptane] + CCCCCCCC[N+](C)(CCCCCCCC)CCCCCCCC.O=C(O)c1ccccc1[S-] | 1.42 and 1.4 | 1.36 and 1.32 | 1.31 and 1.25
3 | C1CCCCC1 [cyclohexane] + CCCCCCCC[N+](C)(CCCCCCCC)CCCCCCCC.O=C(O)c1ccccc1[S-] | 1.34 and 1.32 | 1.28 and 1.26 | 1.23 and 1.19
4 | C=CCCC [1-pentene] + CCCCCCCC[N+](C)(CCCCCCCC)CCCCCCCC.O=C(O)c1ccccc1[S-] | 1.39 and 1.4 | 1.36 ± 0.17 | 1.33 and 1.28
5 | C1CCCC1 [cyclopentane] + CCCCCCCC[N+](C)(CCCCCCCC)CCCCCCCC.O=C(O)c1ccccc1[S-] | 1.1 and 1.08 | 1.07 and 1.05 | 1.04 and 1
6 | Cc1ccccc1 [toluene] + CCCCCCCC[N+](C)(CCCCCCCC)CCCCCCCC.O=C(O)c1ccccc1[S-] | 0.62 and 0.59 | 0.62 and 0.59 | 0.62 and 0.58
7 | CCC(C)=O [butanone] + CCCCCCCC[N+](C)(CCCCCCCC)CCCCCCCC.O=C(O)c1ccccc1[S-] | 0.66 and 0.62 | 0.64 and 0.61 | 0.62 and 0.59
8 | c1ccccc1 [benzene] + CCCCCCCC[N+](C)(CCCCCCCC)CCCCCCCC.O=C(O)c1ccccc1[S-] | 0.51 and 0.48 | 0.5 and 0.48 | 0.5 and 0.47
9 | C1CCCCCCC1 [cyclooctane] + CCCCCCCC[N+](C)(CCCCCCCC)CCCCCCCC.O=C(O)c1ccccc1[S-] | 1.57 ± 0.19 | 1.5 and 1.45 | 1.44 and 1.37
10 | CC(C)=O [acetone] + CCCCCCCC[N+](C)(CCCCCCCC)CCCCCCCC.O=C(O)c1ccccc1[S-] | 0.69 and 0.65 | 0.66 and 0.63 | 0.64 and 0.61

More lines, now with the values ahead:

Row | activity coefficient (303.15 K) | activity coefficient (313.15 K) | activity coefficient (323.15 K) | Structure (SMILES)
11 | 0.7 and 0.69 | 0.72 ± 0.09 | 0.75 ± 0.09 | C#CCCCC [1-hexyne] + CCCCCCCC[N+](C)(CCCCCCCC)CCCCCCCC.O=C(O)c1ccccc1[S-]
12 | 3.21 and 3.11 | 3.07 and 3.03 | 2.98 and 2.88 | CCCCCCCCC [nonane] + CCCCCCCC[N+](C)(CCCCCCCC)CCCCCCCC.O=C(O)c1ccccc1[S-]
13 | 0.88 and 0.84 | 0.92 and 0.9 | 0.94 ± 0.11 | C#CCCCCCC [1-octyne] + CCCCCCCC[N+](C)(CCCCCCCC)CCCCCCCC.O=C(O)c1ccccc1[S-]
14 | 1.57 and 1.55 | 1.53 and 1.51 | 1.51 and 1.46 | C=CCCCC [hex-1-ene] + CCCCCCCC[N+](C)(CCCCCCCC)CCCCCCCC.O=C(O)c1ccccc1[S-]
15 | 2.09 and 2.06 | 2.06 and 2.02 | 2 and 1.93 | C=CCCCCCC [oct-1-ene] + CCCCCCCC[N+](C)(CCCCCCCC)CCCCCCCC.O=C(O)c1ccccc1[S-]
16 | 2.07 ± 0.26 | 1.98 and 1.96 | 1.92 and 1.87 | CCCCCC [hexane] + CCCCCCCC[N+](C)(CCCCCCCC)CCCCCCCC.O=C(O)c1ccccc1[S-]
17 | 1.81 ± 0.22 | 1.75 ± 0.22 | 1.7 and 1.65 | CCCCC [pentane] + CCCCCCCC[N+](C)(CCCCCCCC)CCCCCCCC.O=C(O)c1ccccc1[S-]
18 | 2.77 and 2.72 | 2.68 and 2.61 | 2.55 and 2.47 | CCCCCCCC [octane] + CCCCCCCC[N+](C)(CCCCCCCC)CCCCCCCC.O=C(O)c1ccccc1[S-]
19 | 2.37 and 2.28 | 2.29 and 2.22 | 2.21 and 2.15 | CCCCCCC [heptane] + CCCCCCCC[N+](C)(CCCCCCCC)CCCCCCCC.O=C(O)c1ccccc1[S-]

Source: the NIST ThermoML archive (doi:10.1016/j.jct.2010.12.020)
